The source of these data is patent publication US7989464B2, “mGluR1 antagonists as therapeutic agents” (Schering Corporation, priority 2004, dated 2011).

Like-named read-outs stand apart in the source and are kept apart here. Bounds are passed on as bounds.

The assay deals with T1, hmGluR1 receptor (Homo sapiens, UniProt Q13255).
T1 construct: expressed in transfected cells
The assay can be described thus: IC50 determination: intracellular calcium mobilization (FLIPR) upon Quisqualate stimulation in CHO cells stably expressing hmGluR1. Type of assay: cell-based. Particulars: against Quisqualate 1 μM (EC80). An outline of the steps: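 CHO cells stably expressing hmGluR1 were kept overnight in DMEM high glucose with GPT and 1 mM pyruvate, then loaded 2 h with Calcium 3 dye.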

The mark [1] stands for this setting: FLIPR calcium mobilization, read-out: IC50 Class.
Where [2] appears, read: class symbols, read-out: mGIuR 1 IC50.

T1 sequence (Q13255 19-1194): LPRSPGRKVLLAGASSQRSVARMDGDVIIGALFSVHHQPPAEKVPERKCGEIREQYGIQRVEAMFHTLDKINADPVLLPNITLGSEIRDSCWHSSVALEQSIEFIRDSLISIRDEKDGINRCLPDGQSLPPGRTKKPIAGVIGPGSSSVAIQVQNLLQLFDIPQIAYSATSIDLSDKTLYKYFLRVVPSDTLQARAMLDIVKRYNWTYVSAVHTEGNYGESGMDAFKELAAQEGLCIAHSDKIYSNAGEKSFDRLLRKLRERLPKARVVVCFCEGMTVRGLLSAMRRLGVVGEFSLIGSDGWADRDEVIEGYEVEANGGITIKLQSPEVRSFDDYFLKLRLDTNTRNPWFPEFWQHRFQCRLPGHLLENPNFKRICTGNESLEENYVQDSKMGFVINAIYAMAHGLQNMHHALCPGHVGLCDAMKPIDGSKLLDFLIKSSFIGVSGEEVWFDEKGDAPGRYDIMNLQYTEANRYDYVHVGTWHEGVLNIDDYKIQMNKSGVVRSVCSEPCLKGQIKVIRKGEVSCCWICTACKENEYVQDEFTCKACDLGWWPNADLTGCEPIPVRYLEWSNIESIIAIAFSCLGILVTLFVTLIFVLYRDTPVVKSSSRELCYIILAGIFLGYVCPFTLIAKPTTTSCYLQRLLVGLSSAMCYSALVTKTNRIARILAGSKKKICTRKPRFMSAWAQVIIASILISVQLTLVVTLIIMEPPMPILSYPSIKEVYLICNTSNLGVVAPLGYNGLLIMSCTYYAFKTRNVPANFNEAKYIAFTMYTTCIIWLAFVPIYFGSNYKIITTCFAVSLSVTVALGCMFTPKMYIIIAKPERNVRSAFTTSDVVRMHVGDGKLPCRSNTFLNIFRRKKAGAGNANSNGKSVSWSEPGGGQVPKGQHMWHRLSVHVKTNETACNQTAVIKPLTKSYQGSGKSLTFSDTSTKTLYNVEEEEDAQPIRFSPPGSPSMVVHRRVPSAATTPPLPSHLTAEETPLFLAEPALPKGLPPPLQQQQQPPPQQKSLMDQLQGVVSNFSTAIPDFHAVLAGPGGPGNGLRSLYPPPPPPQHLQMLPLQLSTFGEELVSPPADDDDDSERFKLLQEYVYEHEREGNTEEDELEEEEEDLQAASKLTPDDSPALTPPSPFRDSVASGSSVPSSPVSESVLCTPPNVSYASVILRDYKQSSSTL

As for `COc1ccc(-n2cnc3c(sc4nc(N)cc(NC5CC5)c43)c2=O)cc1` [59G], the IC50 under setting [1] is below 50 nM.
Still for that read-out and setting: with `COc1ccc(-n2cnc3c(sc4ncc(Cl)c(N(C)C)c43)c2=O)cc1` [compound 197] the figure was below 50 nM.
For `CN(C)c1ccnc2sc3c(=O)n(CCO)cnc3c12` [15A], under setting [2], the IC50 is above 1000 nM.
Consider `C=CCN(C)c1ccnc2sc3c(=O)n(-c4ccc(Cl)cc4)cnc3c12` [28DZ], for which the IC50 under setting [1] is below 50 nM and the IC50 (FLIPR calcium mobilization, read-out: mGluR1 IC50) was 1.08 nM.
Consider `Cc1ccc(-n2cnc3c(sc4nccc(NCCN(C)C)c43)c2=O)cc1` [28BA], for which the IC50 under setting [2] was in the range of 150 to 1000 nM.
`CCN(C)c1ccnc2sc3c(=O)n(-c4ccc5c(c4)OCCO5)cnc3c12` [28CG]: under setting [1], the IC50 is below 50 nM.
As to `O=c1c2sc3nccc(N4CCC4)c3c2ncn1C1CCCCC1` [28V], the IC50 under setting [2] lay in the range of 150 to 1000 nM.
As to `CCCN(CCC)c1ccnc2sc3c(=O)n(C4CCCCC4)cnc3c12` [28K], under setting [2], the half-inhibitory concentration (IC50) is above 1000 nM.

What is called IC50 is the concentration that inhibits the measured activity by half.
